From EP4635969A1, “NOVEL GLUCOCORTICOID, METHOD FOR PREPARING SAME, AND USE THEREOF” (Tianjin Pharmaceutical Biotechnology Co., Ltd., priority 2022, dated 2024)
Where two headings read alike, the source gives them in different places.

Tests used:
[1] = Determination of stability in plasma in vitro, human plasma (LC-MS/MS); format: in vitro ADME; settings: same experimental conditions (human and mouse plasma)
Experimental: Pharmacological Example 3: Determination of Stability in Plasma in Vitro
The stock solution was diluted with acetonitrile to obtain a working solution at a concentration of 100 µ M. The solution should be freshly prepared prior to use and maintained at room temperature during application.
990 µ L of human and mouse plasma (N = 2) were separately pipetted and pre-incubated at 37 °C for 5 min. Then, 10 µ L of the test compound working solution was added and vortexed thoroughly (the final concentration of the test compound was 1 µ M). Immediately, 50 µ L of the plasma sample was added to 150 µ L of ice-cold precipitation agent containing the internal standard and vortexed thoroughly as the 0-time sample. The remaining plasma sample was continuously incubated at 37 °C, and 50 µ L of the plasma sample was aspirated and added to 150 µ L of ice-cold precipitation agent containing the internal standard at preset sampling time points, followed by thorough vortexing. The collected samples were stored in a freezer at -60 to -90 °C until analysis.
The concentration of the test compound was determined by LC-MS/MS, and its degradation was monitored. (semi-quantitative determination was conducted by comparing the peak area of the analyte to that of the internal standard).

[2] = tested on: dry eye syndrome model New Zealand rabbits; assay: Dry eye syndrome experiment (benzalkonium chloride model): tear film break-up time; format: in vivo, male New Zealand White rabbits; settings: for tear film break-up time: compared with the model group
Experimental: Positive control drug: Fluorometholone Eye Drops (specification: 5 mL/5 mg; Santen Pharmaceutical (CHINA) Co., Ltd.; Lot No.: 1FM6625) was used as the positive control drug and stored at room temperature protected from light until use.
Thirty male New Zealand White rabbits (conventional grade) were prepared. Six rabbits were randomly selected as the blank control group, and the remaining animals were administered 0.1% benzalkonium chloride to the left eye twice daily (morning and evening) , 10 µL/animal each time. On day 6 of modeling, tear secretion was measured using phenol red cotton threads to determine whether the model was successfully established. […] During the administration, all animals except the blank control group were administered 10 µL of 0.1% benzalkonium chloride to the left eye once daily to maintain dry eye symptoms..
• Test time: D3, D7, D15; • Test animals: All animals were tested before grouping; all enrolled surviving animals were tested after administration; • Test method: 1% Fluorescein sodium was dropped onto the inner side of the rabbit's lower eyelid, 10 µL/animal. The rabbit's eyes were closed and gently massaged to evenly distribute the fluorescein sodium on the eye surface. The rabbit's eyes were then sequentially placed under a slit lamp. The tear film break-up time was observed and recorded as the time from eye opening to the appearance of the first dark spot. If no dark spot appeared, the time was calculated as 60 seconds.
The normality and homogeneity of variance were tested by Levene's test. If there was no statistical significance (P > 0.05), one-way analysis of variance (ANOVA) was used for statistical analysis. If ANOVA was statistically significant (P ≤ 0.05), LSD test (parametric method) was used for comparative analysis. If the variance was heterogeneous (P ≤ 0.05), Kruskal-Wallis test was used. If the Kruskal-Wallis test was statistically significant (P ≤ 0.05), Dunnett's test (nonparametric method) was used for comparative analysis.

[3] = tested on: asthma model mice; assay: Anti-asthma pharmacodynamic experiment: airway hyperresponsiveness (Penh) after methacholine challenge; format: in vivo, female BALB/c mice; settings: compared with the model group
Experimental: Pharmacological Example 4: Pharmacodynamic Experiment on Anti-Asthma
The suspensions were stored at room temperature protected from light until use.
Positive control drug: Budesonide Suspension for Inhalation (specification: 2 mL: 1 mg; AstraZeneca Inc.; Lot No. : 327392) was diluted with injection-grade sodium chloride solution to 0.3 mg/ml as the positive control drug, and stored at room temperature protected from light until use.
Sixty female BALB/c mice underwent a one-week adaptive feeding period. Ten mice were randomly selected as the blank control group, while 50 mice were selected to establish asthma models.
From days 21 to 23 after sensitization, the mice in the model group and drug administration group were exposed to a 30-minute aerosol challenge with 5% OVA, while the mice in the blank control group were exposed to normal saline aerosol for the same duration.
Airway responsiveness was measured in all groups of mice after the last challenge. The mice were placed into a plethysmography chamber, and baseline Penh values were recorded. Subsequently, the mice were challenged with aerosolized methacholine at concentrations from low to high of 0, 6.25, and 12.5 mg/mL, with an aerosol volume of 100 µ L each time for 60 s. […] Penh values were then recorded for 3 min and averaged to compare the airway responsiveness of each group of mice.
Statistical analysis was performed using SPSS software. Measurement data were expressed as mean ± standard deviation. One-way ANOVA was used for intergroup comparisons. For data with homogeneous variance, LSD test was used; for data with heterogeneous variance, Dunnett-t test was used. A value of P < 0.05 was considered statistically significant.

[4] = molecular target: T1, glucocorticoid receptor (GR) (Homo sapiens, UniProt P04150); assay: Assay for agonist activity on glucocorticoid receptor (luciferase reporter, HEK293 cells transfected with pBIND-GR plasmid); format: cell-based
T1 sequence (P04150 521-777): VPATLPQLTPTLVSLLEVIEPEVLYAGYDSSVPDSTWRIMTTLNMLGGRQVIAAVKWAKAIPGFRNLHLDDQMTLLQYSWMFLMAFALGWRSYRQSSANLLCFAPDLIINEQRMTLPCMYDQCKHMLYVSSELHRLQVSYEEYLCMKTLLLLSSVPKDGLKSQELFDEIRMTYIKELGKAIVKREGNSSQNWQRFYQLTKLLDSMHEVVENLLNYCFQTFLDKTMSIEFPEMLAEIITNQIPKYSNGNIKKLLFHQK
Procedure, shortened: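 Readout is luciferase luminescence, with EC50 derived by nonlinear fitting. Compounds ran at 10 concentrations (4-fold steps, top 10 µM, duplicate wells) on pBIND-GR-transfected HEK293 cells in phenol red-free DMEM plus 5% charcoal-stripped serum; 0.1% DMSO served as blank.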

[5] = molecular target: T2, progesterone receptor (PR) (Homo sapiens, UniProt P06401); assay: Assay for agonist activity on progesterone receptor (luciferase reporter, HEK293 cells transfected with pBIND-PR plasmid); format: cell-based
T2 sequence (P06401 678-933): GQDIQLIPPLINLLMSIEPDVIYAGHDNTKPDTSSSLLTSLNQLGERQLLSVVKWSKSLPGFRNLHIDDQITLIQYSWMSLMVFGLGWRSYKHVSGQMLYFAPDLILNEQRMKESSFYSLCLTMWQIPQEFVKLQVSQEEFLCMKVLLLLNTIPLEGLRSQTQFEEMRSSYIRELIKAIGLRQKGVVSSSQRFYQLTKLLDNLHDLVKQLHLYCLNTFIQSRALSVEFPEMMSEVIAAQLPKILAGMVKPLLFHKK
Procedure, shortened: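 HEK293 cells transiently transfected with pBIND-MR or pBIND-PR, seeded in phenol red-free DMEM with 5% charcoal-stripped serum. Compounds tested as 12-point 4-fold dilutions from 50 µM in duplicate, 0.1% DMSO blank. Luciferase luminescence read, EC50 by nonlinear fit.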

[6] = GR agonist EC50 (nM), HEK293 cells transfected with pBIND-GR, luciferase signal

Structure (SMILES)	plasma instability [1]	tear film break-up time [2]	Effects on airway hyperresponsiveness (Penh values) in mice [3]	EC50 [4, 6] [nM]	EC50 [5] [µM]	Target selectivity PR/GR ([5]; ratio of EC50 values)	EC50 ([4]; Nuclear receptor enzyme activity (nM) GR, EC50 of agonist activity, HEK293 reporter cells) [nM]	Tear film break-up time (s) D3 ([2]; D3, 1 mg/mL, 50 µL/eye, 3 times a day for 14 days) [s]	Tear film break-up time (s) D7 ([2]; D7, 1 mg/mL, 50 µL/eye, 3 times a day for 14 days) [s]	Tear film break-up time (s) D15 ([2]; D15, 1 mg/mL, 50 µL/eye, 3 times a day for 14 days) [s]	EC50 ([4]; HEK293 cells transfected with pBIND-GR, luciferase signal, read-out: GR agonist EC50) [nM]
C[C@]12C=CC(=O)C=C1[C@@H](F)C[C@H]1[C@@H]3C[C@H]4OC(c5ccc(CSC6CCOC6=O)cc5)O[C@@]4(C(=O)OCC#N)[C@@]3(C)C[C@H](O)[C@@]12F (stereo partly drawn) [Compound 37, Cyanomethyl (2S,6aS,6bR,7S,8aS,8bS,11aR,12aS,12bS)-2,6b-difluoro-7-hydroxy-6a,8a-dimethyl-4-oxo-10-(4-( ((2-oxotetrahydrofuran-3-yl)thio)methyl)phenyl)-1,2,4,6a,6b,7,8,8a,11a,12,12a,12b-dodecahydro-8bH-naphtho[2',1':4,5]indeno[1,2-d][1,3]dioxole-8b-carboxylate]	exhibited the characteristic of plasma instability	significantly increased the tear film break-up time	significantly decreased the Penh values in mice	0.78	–	–	–	–	–	–	–
C[C@]12C=CC(=O)C=C1[C@@H](F)C[C@H]1[C@@H]3C[C@H]4OC(c5ccc(CSC6CCOC6=O)cc5)O[C@@]4(C(=O)SCC#N)[C@@]3(C)C[C@H](O)[C@@]12F (stereo partly drawn) [Compound 35, S-(Cyanomethyl) (2S,6aS,6bR,7S,8aS,8bS,11aR,12aS,12bS)-2,6b-difluoro-7-hydroxy-6a,8a-dimethyl-4-oxo-10-(4-( ((2-oxotetrahydrofuran-3-yl)thio)methyl)phenyl)-1,2,4,6a,6b,7,8,8a,11a,12,12a,12b-dodecahydro-8bH-naphtho[2',1':4,5]indeno[1,2-d][1,3]dioxole-8b-carbothioate]	exhibited the characteristic of plasma instability	significantly increased the tear film break-up time	significantly decreased the Penh values in mice	0.21	> 50	> 2.4×10^5	0.21	–	–	–	–
C[C@]12C=CC(=O)C=C1CC[C@H]1[C@@H]3C[C@H]4OC(c5ccc(CSC6COC(=O)C6)cc5)O[C@@]4(C(=O)CO)[C@@]3(C)C[C@H](O)[C@@]12Cl (stereo partly drawn) [Compound 26, (6aS,6bR,7S,8aS,8bS,11aR,12aS,12bS)-6b-Chloro-7-hydroxy-8b-(2-hydroxyacetyl)-6a,8a-dimethyl-10-(4-(((5-oxotetrahydrofuran-3-yl)thio)methyl)phenyl)-1,2,6a,6b,7,8,8a,8b,11a,12,12a,12b-do decahydro-4H-naphtho[2',1':4,5]indeno[1,2-d][1,3]dioxol-4-one]	exhibited the characteristic of plasma instability	significantly increased the tear film break-up time	significantly decreased the Penh values in mice	0.37	–	–	–	–	–	–	–
C[C@]12C=CC(=O)C=C1CC[C@H]1[C@@H]3C[C@H]4OC(c5ccc(CNC6COC(=O)C6)cc5)O[C@@]4(C(=O)CO)[C@@]3(C)C[C@H](O)[C@@]12F (stereo partly drawn) [Compound 21, (6aS,6bR,7S,8aS,8bS,11aR,12aS,12bS)-6b-Fluoro-7-hydroxy-8b-(2-hydroxyacetyl)-6a,8a-dimethyl-10-(4-(((5-oxotetrahydrofuran-3-yl)amino)methyl)phenyl)-1,2,6a,6b,7,8,8a,8b,11a,12,12a,12b-dodecahydro-4H-naphtho[2',1':4,5]indeno[1,2-d][1,3]dioxol-4-one]	exhibited the characteristic of plasma instability	significantly increased the tear film break-up time	significantly decreased the Penh values in mice	0.63	–	–	–	–	–	–	–
C[C@]12C=CC(=O)C=C1CC[C@H]1[C@@H]3C[C@H]4OC(c5ccc(CSC6CCOC6=O)nc5)O[C@@]4(C(=O)CO)[C@@]3(C)C[C@H](O)[C@@]12Cl (stereo partly drawn) [Compound 48, (6aS,6bR,7S,8aS,8bS,11aR,12aS,12bS)-6b-Chloro-7-hydroxy-8b-(2-hydroxyacetyl)-6a,8a-dimethyl-10-(6-(((2-oxotetrahydrofuran-3-yl)thio)methyl)pyridin-3-yl)-1,2,6a,6b,7,8,8a,8b,11a,12,12a,12 b-dodecahydro-4H-naphtho[2',1':4,5]indeno[1,2-d][1,3]dioxol-4-one]	exhibited the characteristic of plasma instability	significantly increased the tear film break-up time	significantly decreased the Penh values in mice	0.37	–	–	–	–	–	–	–
C[C@]12C=CC(=O)C=C1[C@@H](F)C[C@H]1[C@@H]3C[C@H]4OC(c5ccc(CSC6CCOC6=O)nc5)O[C@@]4(C(=O)CO)[C@@]3(C)C[C@H](O)[C@@]12F (stereo partly drawn) [Compound 46, (25,6aS,6bR,78,8a8,8bS,11aR,12a8,12b8S)-2,6b-Difluoro-7-hydroxy-8b-(2-hydroxyacetyl)-6a,8a-dimethyl-10-(6-(((2-oxotetrahydrofuran-3-yl)thio)methyl)pyridin-3-yl)-1,2,6a,6b,7,8,8a,8b,11a,12, 12a,12b-dodecahydro-4H-naphtho[2',1':4,5]indeno[1,2-d][1,3]dioxol-4-one]	exhibited the characteristic of plasma instability	significantly increased the tear film break-up time	significantly decreased the Penh values in mice	0.23	–	–	–	–	–	–	–
C[C@]12C=CC(=O)C=C1CC[C@H]1[C@@H]3C[C@H]4OC(c5ccc(CSC6CCOC6=O)cn5)O[C@@]4(C(=O)CO)[C@@]3(C)C[C@H](O)[C@@]12Cl (stereo partly drawn) [Compound 51, (6aS,6bR,7S,8aS,8bS,11aR,12aS,12bS)-6b-Chloro-7-hydroxy-8b-(2-hydroxyacetyl)-6a,8a-dimethyl-10-(5-(((2-oxotetrahydrofuran-3-yl)thio)methyl)pyridin-2-yl)-1,2,6a,6b,7,8,8a,8b,11a,12,12a,12 b-dodecahydro-4H-naphtho[2',1':4,5]indeno[1,2-d][1,3]dioxol-4-one]	exhibited the characteristic of plasma instability	significantly increased the tear film break-up time	significantly decreased the Penh values in mice	0.82	–	–	–	–	–	–	–
C[C@]12C=CC(=O)C=C1CC[C@H]1[C@@H]3C[C@H]4OC(c5ccc(CSC6COC(=O)C6)cc5Cl)O[C@@]4(C(=O)CO)[C@@]3(C)C[C@H](O)[C@@]12F (stereo partly drawn) [Compound 20, (6aS,6bR,7S,8aS,8bS,11aR,12aS,12bS)-10-(2-Chloro-4-(((5-oxotetrahydrofuran-3-yl)thio)methyl)phenyl)-6b-fluoro-7-hydroxy-8b-(2-hydroxyacetyl)-6a,8a-dimethyl-1,2,6a,6b,7,8,8a,8b,11a,12,12a, 12b-dodecahydro-4H-naphtho[2',1':4,5]indeno[1,2-d][1,3]dioxol-4-one]	exhibited the characteristic of plasma instability	significantly increased the tear film break-up time on day 15	significantly decreased the Penh values in mice	–	–	–	–	37.00 ± 13.36	48.00 ± 9.94	48.28 ± 8.21	0.33
